Experiments:
[1] = target: HIV-1 protease (Human immunodeficiency virus type 1 group M subtype B, UniProt P04585); experiment: inhibition constants against HIV-1 protease (method of Pennington et al.); assay type: biochemical
Excerpt: We have measured the inhibition constants of each compound against HIV-1 protease using the method described essentially by M. W. Pennington et al., Peptides 1990, Gimet, E. and D. Andrew, Eds., Escom; Leiden, Netherlands (1990).
We measured the inhibition constants of the compounds listed in Table II against HIV-1 protease using the above-cited method of Pennington et al.

[2] = tested on: HIVIIIb in CCRM-CEM cells; experiment: anti-viral potency in CCRM-CEM cells acutely infected with HIVIIIb, extracellular p24 antigen (method of Meek et al.); assay type: cell-based, HIV-1; CD4+ human T-cell lymphoma cells; conditions: Human immunodeficiency virus 1
Experimental: Compounds of formula I were tested for their antiviral potency in several virological assays. In the first assay, the compounds were added as a solution in dimethylsulfoxide (DMSO) to a test cell culture of CCRM-CEM cells, a strain of CD4^+ human T-cell lymphoma cells, previously acutely infected with […] using standard protocols (see Meek, T. D. et al., "Inhibition of HIV-1 protease in infected T-lymphocytes by synthetic peptide analogues", Nature, 343, p. 90 (1990). Preferred compounds are those which are able to inhibit 90% of viral infectivity at a concentration of 1 μM or less. More preferred compounds are those which are able to inhibit 90% of viral infectivity at a concentration of 100 nM or less. The effect of the compounds on inhibiting the replication of the virus was measured by determining the HIV extracellular p24 antigen concentration using a commercial enzyme immunoassay (obtained from Coulter Corporation, Hialeah, Fla.). […] Ki and IC90 values are expressed in nM. The designation "ND" is used where a given compound was not tested.

Row | Structure (SMILES) | Ki [1] | IC90 [2]
1 | Nc1cccc(S(=O)(=O)N(CC2CCCC2)C[C@@H](O)[C@H](Cc2ccccc2)NC(=O)OC2COC3OCCCC23)c1 (single isomer, unassigned) [Compound 7] | < 0.1 nM | 
2 | Nc1cccc(S(=O)(=O)N(CC2CCCC2)C[C@@H](O)[C@H](Cc2ccccc2)NC(=O)OC2COC3OCCCC23)c1 (single isomer, unassigned) [Compound 8] | < 0.1 nM | 
3 | CC(C)CN(C[C@@H](O)[C@H](Cc1ccccc1)NC(=O)OC1COC2OCCCC12)S(=O)(=O)c1cccc(N)c1 (single isomer, unassigned) [Compound 9] | 0.1 nM | 
4 | CC(C)CN(C[C@@H](O)[C@H](Cc1ccccc1)NC(=O)OC1COC2OCCCC12)S(=O)(=O)c1cccc(N)c1 (single isomer, unassigned) [Compound 10] | < 0.1 nM | 
5 | COc1ccc(S(=O)(=O)N(CC2CCCC2)C[C@@H](O)[C@H](Cc2ccccc2)NC(=O)OC2COCOC2)cc1 [Compound 1, N-Cyclopentylmethyl-N-((2 syn, 3S)-2-hydroxy-4-phenyl-3-(1,3-dioxan-5-yl-oxycarbonylamino))butyl-4-methoxy-benzenesulfonamide] | < 0.1 nM | 5 nM
6 | COc1ccc(S(=O)(=O)N(CC2CCCC2)C[C@@H](O)[C@H](Cc2ccccc2)NC(=O)OCC2COCO2)cc1 (stereo partly drawn) [Compound 2, N-Cyclopentylmethyl-N-((2 syn, 3S)-2-hydroxy-4-phenyl-3-(1,3-dioxolan-4-yl-methoxycarbonylamino))butyl-4-methoxy-benzenesulfonamide] | 0.3 nM | 
7 | Nc1ccc(S(=O)(=O)N(CC2CCCC2)C[C@@H](O)[C@H](Cc2ccccc2)NC(=O)OC2COCOC2)cc1 [Compound 3, 4-Amino-N-cyclopentylmethyl-N-((2 syn, 3S)-2-hydroxy-4-phenyl-3-(1,3-dioxan-5-yl-oxycarbonylamino))butyl-benzenesulfonamide] | 0.1 nM | 4 nM
8 | CC(C)CN(C[C@@H](O)[C@H](Cc1ccccc1)NC(=O)OC1COCOC1)S(=O)(=O)c1ccc(N)cc1 [Compound 4, 4-Amino-N-((2 syn, 3S)-2-hydroxy-4-phenyl-3-1,3-dioxan-5-yl-oxycarbonylamino)butyl-N-isobutyl-benzenesulfonamide] | 0.3 nM | 12 nM
9 | CC(C)CN(C[C@@H](O)[C@H](Cc1ccccc1)NC(=O)OC1COCOC1)S(=O)(=O)c1cccc(N)c1 [Compound 5, 3-Amino-N-((2 syn, 3S)-2-hydroxy-4-phenyl-3-1,3-dioxan-5-yl-oxycarbonylamino)butyl-N-isobutyl-benzenesulfonamide] | 0.15 nM | 7 nM
10 | Nc1cccc(S(=O)(=O)N(CC2CCCC2)C[C@@H](O)[C@H](Cc2ccccc2)NC(=O)OC2COCOC2)c1 [Compound 6, 3-Amino-N-cyclopentylmethyl-N-((2 syn, 3S)-2-hydroxy-4-phenyl-3-(1,3-dioxan-5-yl-oxycarbonylamino))butyl-benzenesulfonamide] | < 0.1 nM | 5 nM
11 | CC(=O)Nc1ccc(S(=O)(=O)N(C)C[C@@H](O)[C@H](Cc2ccccc2)NC(=O)OC2COC3OCCCC23)cc1 (stereo partly drawn) [Compound 11, 4-Acetamido-N-((2 syn, 3S)-2-hydroxy-4-phenyl-3-tetrahydropyrano-[2,3-b]tetrahydrofuran-4-yloxycarbonylamino)butyl-N-methyl-benzenesulfonamide] | 160 nM | 
12 | CC(C)C[C@H](NC(=O)OC1COC2OCCCC12)[C@H](O)CN(CC1CCCCC1)S(=O)(=O)c1cccc(N)c1 (stereo partly shown) [Compound 12] | 1.5 nM | 
13 | CC1(OC(=O)N[C@@H](Cc2ccccc2)[C@H](O)CN(CC2CCCC2)S(=O)(=O)c2cccc(N)c2)CCOC1 (stereo partly drawn) [Compound 15, 3-Amino-N-cyclopentylmethyl-N-((2 syn, 3S)-2-hydroxy-4-phenyl-3-(3-methyltetrahydrofuran-3-yl)oxycarbonylamino)butyl-benzenesulfonamide] | 0.4 nM | 
14 | CC(C)CN(C[C@@H](O)[C@H](Cc1ccccc1)NC(=O)OC1(C)CCOC1)S(=O)(=O)c1cccc(N)c1 (stereo partly drawn) [Compound 16, 3-Amino-N-((2 syn, 3S)-2-hydroxy-4-phenyl-3-(3-methyltetrahydrofuran-3-yl)oxycarbonylamino)butyl-N-isobutyl-benzenesulfonamide] | 1.5 nM | 
